Experimental data: ChEMBL document CHEMBL1201862, “PubChem BioAssay data set” (2004)
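Tested at 5 concentrations; 48 h exposure; 96-well plates; endpoints linearly interpolated, else capped at highest concentration. GI50 = concentration required for 50% inhibition of growth.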 Active and inactive are the calls of the source. Cut-off read from the data, not from the text of the source: active = GI50 up to about 1.1 µM and inactive = higher.

Assays:
Test in all cases: growth of human tumour cells (NCI), 48 h
[1] = test system: SF-539
[2] = test system: SN12C
[3] = test system: HCC 2998
[4] = test system: SK-MEL-2
[5] = test system: KM12
[6] = test system: NCI-H460
[7] = test system: SK-MEL-5
[8] = test system: 786-0
[9] = test system: RPMI-8226
[10] = test system: OVCAR-3
[11] = test system: HCT-116
[12] = test system: HOP-62
[13] = test system: CCRF-CEM
[14] = test system: NCI-H226

Measured: GI50

O=C(c1ccc(NCN2C(=O)CCC2=O)cc1)c1ccc(NCN2C(=O)CCC2=O)cc1
inactive: [1] > 100 µM | [2] > 100 µM | [3] > 100 µM | [4] > 100 µM | [5] > 100 µM | [6] > 100 µM | [7] > 100 µM | [8] > 100 µM | [9] 20.4 µM | [10] > 100 µM | [11] > 100 µM | [12] > 100 µM | [13] > 100 µM

NC(CCCC(N)P(=O)(O)O)P(=O)(O)O (stereo unspecified)
inactive: [1] > 100 µM | [2] > 100 µM | [3] > 100 µM | [14] > 100 µM | [5] > 100 µM | [6] > 100 µM | [7] > 100 µM | [8] > 100 µM | [9] > 100 µM | [10] > 100 µM | [11] > 100 µM | [13] > 100 µM

CC1C[C@@H]2C(=O)NC(=O)[C@@H]2c2c1c1ccccc1n2C (stereo partly specified)
inactive: [1] > 100 µM | [2] > 100 µM | [3] > 100 µM | [14] > 100 µM | [4] > 100 µM | [5] > 100 µM | [6] > 100 µM | [7] > 100 µM | [8] > 100 µM | [9] > 100 µM | [10] > 100 µM | [12] > 100 µM | [13] 97.9 µM

COc1nc(=O)n(COC(CO)CN2C(=O)c3ccccc3C2=O)cc1Cc1cccc(OCc2ccccc2)c1 (stereo unspecified)
inactive: [1] 16.6 µM | [2] 22 µM | [3] 20.7 µM | [14] 17.4 µM | [4] 15.4 µM | [5] 28.2 µM | [7] 15.7 µM | [8] > 10 µM | [9] 18.6 µM | [10] 21.9 µM | [11] 29.4 µM | [13] 24.1 µM

COc1cccc(Cc2c3cc(OC)ccc3cc[n+]2C)c1
inactive: [2] 32.6 µM | [3] 87.9 µM | [4] 72.6 µM | [5] 40.5 µM | [6] > 100 µM | [7] 22.4 µM | [8] > 100 µM | [9] 24.7 µM | [10] 47.5 µM | [12] > 100 µM | [13] 87.3 µM

CN1c2ccccc2N(C)C2C1N(C)c1ccccc1N2C (stereo unspecified)
inactive: [1] 15.3 µM | [2] 20 µM | [3] 9.73 µM | [14] 23.2 µM | [4] 9.59 µM | [5] 16 µM | [6] 20.8 µM | [7] 3.72 µM | [8] 32.9 µM | [9] 5.11 µM | [10] 8.71 µM | [11] 12.7 µM | [12] 34.3 µM | [13] 2.81 µM

N#Cc1cccc(N2C(=O)c3ccc(C(=O)c4ccc5c(c4)C(=O)N(c4cccc(C#N)c4)C5=O)cc3C2=O)c1
inactive: [1] > 100 µM | [2] > 100 µM | [14] > 100 µM | [4] > 100 µM | [5] > 100 µM | [6] > 100 µM | [7] > 100 µM | [8] 64.4 µM | [9] > 100 µM | [10] > 100 µM | [11] > 100 µM | [12] > 100 µM | [13] > 100 µM

COc1cc2c(cc1O)[C@H](C)C(c1ccc(Cl)cc1)O2 (stereo partly specified)
inactive: [1] 57.9 µM | [3] 18.5 µM | [14] 24.9 µM | [4] 21.3 µM | [5] 25.2 µM | [6] 17.9 µM | [7] 16.3 µM | [8] 17.1 µM | [9] 6.34 µM | [10] 37.4 µM | [11] 16.1 µM | [12] 22.6 µM | [13] 14.5 µM
